The nature of series [1]: Solubility of the raw polyphenols (A) and (B) in water at 25° C. Particulars: for Solubility of (B) in water (25° C.): water-soluble polyphenol (B) alone; for Solubility of (A) in water (25° C.): hardly water-soluble polyphenol (A) alone.
Source text: (§1) The term “hardly water-soluble polyphenol” used in the present invention refers to the one having a poor solubility in water. […] The solubility represents herein a gram number of the solute being dissolved in 1 L of the solution with a unit of [g/L].
The next series in a line: physchem. The note with it: 25 °C, water.

Converted amounts (≈) assume the structure as drawn.

Usually solubility stands for the dissolved amount per volume that the medium holds.

Source text for physchem: as §1

Regarding `O=C(O[C@@H]1Cc2c(O)cc(O)cc2O[C@@H]1c1cc(O)c(O)c(O)c1)c1cc(O)c(O)c(O)c1` [Catechin, epigallocatechin gallate], in series [1], the “Solubility of (B) in water (25° C.)” value amounted to 15 g/L.
With `O=c1oc2c(O)c(O)cc3c(=O)oc4c(O)c(O)cc1c4c23` [Ellagic acid, ellagic acid], in series [1] (25 °C), the solubility came out at 4 µg/mL (≈ 13.2 µM). In series [1], the “Solubility of (A) in water (25° C.)” value was found to be 0.004 g/L.
Regarding `COc1ccc([C@@H]2CC(=O)c3c(O)cc(O[C@@H]4O[C@H](CO[C@@H]5O[C@@H](C)[C@H](O)[C@@H](O)[C@H]5O)[C@@H](O)[C@H](O)[C@H]4O)cc3O2)cc1O` [Hesperidin, hesperidin], the “Solubility of (A) in water (25° C.)” value in series [1] was 0.050 g/L.
On to `c1cc2c(cc1[C@H]1OC[C@H]3[C@@H]1CO[C@@H]3c1ccc3c(c1)OCO3)OCO2` [Sesamin, sesamin], for which, in “physchem”, the solubility was determined as 0.14 µg/mL (≈ 0.395 µM).
As to glucosylhesperidin, the “Solubility of (B) in water (25° C.)” value in series [1] is listed as ≥ 300 or g/L.

Source of the values: patent US9669047B2, “Method for producing polyphenol composition” (KAO CORPORATION, priority 2012, dated 2017).
